What all share (type): cell-based
The subject of assay [1] is MM.1S, B Lymphoblast (multiple myeloma). Kind of assay: MTT viability assay, MM.1S. The protocol:
MM.1S, B Lymphoblast (multiple myeloma), ATCC: CRL-2974
(§1) Cell lines A549, MCF-7 and RAMOS were cultured in incubator under CO2 (6%) at 37° C. in DMEM high glucose (Dulbecco's Modified Eagle Solution, Gibco-BRL 31966-21) medium with 10% fetal bovine serum inactivated (FBS) (Gibco-BRL 10106-169). Cell lines HL-60 and MM.1S were cultured in incubator at 37° C. in RPMI-1640 (Sigma R8758) medium with 10% of fetal bovine serum inactivated (FBS) and 2 mM glutamine (Sigma G7513). Cell lines BJ were cultured in incubator under CO2 (6%) at 37° C. in Eagle's Minimum Essential Medium (Sigma, M-2279) with 10% fetal bovine serum inactivated (FBS) (Gibco-BRL 10106-169).
During the amplification step and the assays adherent cells were rinsed with DPBS (Dulbecco's Phosphate Buffered Saline, Sigma D1283) three times and afterward treated for 5 minutes with trypsin ([…]) (Gibco-BRL, 15400054) in solution of DPBS at 37° C., and, once detached, transferred in the culturing medium. No-adherent cells were centrifuged and transferred in the culturing medium. Cells were counted in a Neubauer chamber after labelling with Tripan-Blue.
Cells were seeded at a density of 10000 cells/well in 100 μl of medium in 96 well plates. After 24 h, the compounds to be tested were added to calculate the dose/response curve at the starting concentration of 100 μM with serial dilutions (1:1). Controls are the untreated cells. Each experiment was performed in triplicate.
(§2) Cells were incubated with the compounds at the indicated concentrations during 24-72 h in incubator under CO2 atmosphere at 37° C. Then, cell viability was measured by means of MTT (3-(4,5-dimethylthiazol-2-yl)-2,5-diphenyltetrazolium bromide) assay. Stock solution of MTT (475989 Calbiochem) was 5 mg/ml in PBS. 1×.10 μl/well of MTT solution were added and the plate was incubated for 3-4 hr. The medium was discarded and 100 μl of extracting buffer (PBS 1×, 15% SDS, 50% […] N,N-Dimethylformamide, pH 4.7) were added to each well. Plates were incubated for 16 h at room temperature under orbital shaking. Absorbance at 570 nm was finally measured. As negative control (experiment noise) 3 wells were treated with 20 μl/well of a solution of SDS 10% in H2O.
Data analysis was performed calculating the percentage of cell viability normalized vs. the values of negative control, which was considered equal to 100%. The dose/response curve was fitted through the sigmoidal equation dose-response (variable slope) and the IC50 values were calculated as follow:
Y=Bottom+(Top−Bottom)/(1+10^{[(LogIC50−X)*HillSlope]},
All cell lines were cultured in incubator at 37° C. in RPMI-1640 (Sigma R8758) medium with 10% of fetal bovine serum inactivated (FBS) and 2 mM glutamine (Sigma G7513). During the amplification step cells were centrifuged and transferred into the culturing medium. Cells were counted in a Neubauer chamber after labelling with Tripan-Blue.
as §2, with “peptidomimetic compound (S09)” for “compounds”
Cell lines A549 and MBA-MD231 were cultured in incubator under CO2 (6%) at 37° C. in DMEM high glucose (Dulbecco's Modified Eagle Solution, Gibco-BRL 31966-21) medium with 10% fetal bovine serum inactivated (FBS) (Gibco-BRL 10106-169). […]
(Formazan colour is commonly taken as a measure of viable cells.)

The test system of assay [2] is A549, epithelial (lung cancer). Description: MTT viability assay, A549. As to the method:
A549, epithelial (lung cancer), ATCC: CCL-185
as §1
During the amplification step and the assays adherent cells were rinsed with DPBS (Dulbecco's Phosphate Buffered Saline, Sigma D1283) three times and afterward treated for 5 minutes with trypsin ([…]) (Gibco-BRL, 15400054) in solution of DPBS at 37° C., and, once detached, transferred in the culturing medium. No-adherent cells were centrifuged and transferred in the culturing medium. Cells were counted in a Neubauer chamber after labelling with Tripan-Blue. […]
as §2
Data analysis was performed calculating the percentage of cell viability normalized vs. the values of negative control, which was considered equal to 100%. The dose/response curve was fitted through the sigmoidal equation dose-response (variable slope) and the IC50 values were calculated as follow: […]

The subject of assay [3] is HL-60, promyeloblast (acute myelocytic leukemia, AML). Description: MTT viability assay, HL-60. As to the method:
HL-60, promyeloblast (acute myelocytic leukemia, AML), ECACC: 98070106 […] During the amplification step and the assays adherent cells were rinsed with DPBS (Dulbecco's Phosphate Buffered Saline, Sigma D1283) three times and afterward treated for 5 minutes with trypsin ([…]) (Gibco-BRL, 15400054) in solution of DPBS at 37° C., and, once detached, transferred in the culturing medium. No-adherent cells were centrifuged and transferred in the culturing medium. Cells were counted in a Neubauer chamber after labelling with Tripan-Blue. […] Cells were seeded at a density of 10000 cells/well in 100 μl of medium in 96 well plates. […] Controls are the untreated cells. Each experiment was performed in triplicate. Cells were incubated with the compounds at the indicated concentrations during 24-72 h in incubator under CO2 atmosphere at 37° C. […] Stock solution of MTT (475989 Calbiochem) was 5 mg/ml in PBS. 1×.10 μl/well of MTT solution were added and the plate was incubated for 3-4 hr. […] Plates were incubated for 16 h at room temperature under orbital shaking. Absorbance at 570 nm was finally measured. […] The dose/response curve was fitted through the sigmoidal equation dose-response (variable slope) and the IC50 values were calculated as follow: Y=Bottom+(Top−Bottom)/(1+10^{[(LogIC50−X)*HillSlope]},

Setting [4] is: MM.1S, same protocol as Example 2, Table 6, read-out: Compound (IC50).
Setting [5] is: HL-60, same protocol as Example 2, Table 6, read-out: Compound (IC50).
The mark [6] stands for this setting: A549, same protocol as Example 2, Table 6, read-out: Compound (IC50).

Like-named read-outs stand apart in the source and are kept apart here. Starred links: 1 amine or outer side, 2 acyl side, 3 side chain; linkers in the order of their positions; H or OH if unused. Positions of bridges follow the written chain, without caps; N, C: chain ends. Non-standard residues stand in square brackets, D forms with d. Residues, ends and D or L forms follow the SMILES beside them. No end group written: not given here. ξ: configuration not given here. Biphenyl(4,4'-CH2)2 = c1cc(-c2ccc(C[*:2])cc2)ccc1C[*:1]; ξαMeNle(6-ylidene) = CC(CCCC=[*:3])(N[*:1])C(=O)[*:2]; X1 = CC(CCCCCCC=[*:3])(N[*:1])C(=O)[*:2]; Octanediyl(1,8) = C(CCCC[*:2])CCC[*:1]; ξC = NC(CS)C(=O)O Some results are limits rather than exact numbers.

As to `CC[C@H](C)[C@H](NC(=O)[C@H](Cc1ccc(O)cc1)NC(=O)[C@H](C)NC(=O)C1CSCCCCCCCCSCC(NC(=O)[C@H](CCCCN)NC(=O)[C@@H]2CCCN2C(=O)[C@H](C)N)C(=O)N[C@@H](C(C)C)C(=O)N[C@@H]([C@@H](C)CC)C(=O)N[C@@H](CC(C)C)C(=O)N[C@@H](CCCCN)C(=O)N[C@@H](CCCCN)C(=O)N[C@@H](C)C(=O)N1)C(=O)N[C@@H](CC(C)C)C(=O)N[C@@H](CO)C(=O)O` (some centres unmarked) [IDP-P1708160] (H-APK[ξC]VILKKA[ξC]AYILS-OH; linker 4-11 via Octanediyl(1,8); N-terminus and C-terminus assumed), the concentration for half-maximal inhibition (IC50) in assay [1] was determined as 48 µM; in assay [1] (24 h), 35 µM; in assay [1] (72 h), 5 µM; in assay [2], 65 ± 17 µM.

Take `CC[C@H](C)[C@H](NC(=O)[C@@H](NC(=O)[C@@H](NC(=O)[C@H](CCCCN)NC(=O)[C@@H]1CCCN1C(=O)[C@H](C)N)C(C)C)C(C)C)C(=O)NC1(C)CCCCCCC=CCCCC(C)(C(=O)N[C@@H](CC(C)C)C(=O)N[C@@H](CO)C(=O)O)NC(=O)[C@H](Cc2ccc(O)cc2)NC(=O)[C@H](C)NC(=O)[C@H]([C@@H](C)O)NC(=O)[C@H](C)NC(=O)[C@H](CCCCN)NC(=O)[C@H](CCCCN)NC1=O` (some centres unmarked) [IDP-S17, APKVVIXKKATAYXLS] (H-APKVVI[X1]KKATAY[ξαMeNle(6-ylidene)]LS-OH; staple 7-14; N-terminus and C-terminus assumed): the IC50 in assay [1], in assay [3] and in assay [2] was more than 100 µM in each case.

With `CC[C@H](C)[C@@H]1NC(=O)[C@H](Cc2ccc(O)cc2)NC(=O)[C@H](C)NC(=O)[C@H]([C@@H](C)O)NC(=O)[C@H](C)NC(=O)[C@H](CCCCN)NC(=O)C(C)(NC(=O)[C@H](CC(C)C)NC(=O)[C@@H](NC(=O)[C@@H](NC(=O)[C@@H](NC(=O)[C@H](CCCCN)NC(=O)[C@@H]2CCCN2C(=O)[C@H](C)N)C(C)C)C(C)C)[C@@H](C)CC)CCCCCCC=CCCCC(C)(C(=O)N[C@@H](CO)C(=O)O)NC1=O` (some centres unmarked) [IDP-S18, APKVVILXKATAYIXS] (H-APKVVIL[X1]KATAYI[ξαMeNle(6-ylidene)]S-OH; staple 8-15; N-terminus and C-terminus assumed), the concentration for half-maximal inhibition (IC50) in assay [1], in assay [3] and in assay [2] was more than 100 µM in each case.

In the case of “RQIKIWFQNRRMKWKKNELKRAFAALRDQI [Int-HI-S6A-F8, reference compound]”, the IC50 in assay [1], in assay [3] and in assay [2] was more than 100 µM throughout.

For `CC[C@H](C)[C@H](NC(=O)[C@H](Cc1ccc(O)cc1)NC(=O)C1(C)CCCC=CCCCCCCC(C)(NC(=O)[C@@H](NC(=O)[C@H](CCCCN)NC(=O)[C@@H]2CCCN2C(=O)[C@H](C)N)C(C)C)C(=O)N[C@@H]([C@@H](C)CC)C(=O)N[C@@H](CC(C)C)C(=O)N[C@@H](CCCCN)C(=O)N[C@@H](CCCCN)C(=O)N[C@@H](C)C(=O)N[C@@H]([C@@H](C)O)C(=O)N1)C(=O)N[C@@H](CC(C)C)C(=O)N[C@@H](CO)C(=O)O` (some centres unmarked) [IDP-S21, APKVXILKKATXYILS] (H-APKV[X1]ILKKAT[ξαMeNle(6-ylidene)]YILS-OH; staple 5-12), the IC50 in assay [1] (setting [4]), in assay [3] (setting [5]) and in assay [2] (setting [6]) was more than 100 µM each time.

As for `CCc1ccc(/C=C2/SC(=S)NC2=O)cc1` [10058-F4, reference compound], the half-maximal inhibitory concentration (IC50) in assay [1] (MM.1S, MTT, incubation 24-72 h, Table 3, read-out: IC50 values) is more than 100 µM; in assay [3] (HL-60, MTT, incubation 24-72 h, Table 3, read-out: IC50 values), 54 ± 2 µM; in assay [2] (A549, MTT, incubation 24-72 h, Table 3, read-out: IC50 values), more than 100 µM.

As for `CC[C@H](C)[C@@H]1NC(=O)[C@H](Cc2ccc(O)cc2)NC(=O)[C@H](C)NC(=O)[C@H]([C@@H](C)O)NC(=O)[C@H](C)NC(=O)C(C)(NC(=O)[C@H](CCCCN)NC(=O)[C@H](CC(C)C)NC(=O)[C@@H](NC(=O)[C@@H](NC(=O)[C@@H](NC(=O)[C@H](CCCCN)NC(=O)[C@@H]2CCCN2C(=O)[C@H](C)N)C(C)C)C(C)C)[C@@H](C)CC)CCCCCCC=CCCCC(C)(C(=O)N[C@H](C(=O)O)C(C)C)NC(=O)[C@H](CC(C)C)NC1=O` (some centres unmarked) [IDP-S23, APKVVILKXATAYILXV] (H-APKVVILK[X1]ATAYIL[ξαMeNle(6-ylidene)]V-OH; staple 9-16), the half-maximal inhibitory concentration (IC50) in assay [1] (setting [4]), in assay [3] (setting [5]) and in assay [2] (setting [6]) was more than 100 µM in each case.

As for `CC[C@H](C)[C@H](NC(=O)[C@H](Cc1ccc(O)cc1)NC(=O)[C@H](C)NC(=O)[C@@H]1CSCc2ccc(cc2)-c2ccc(cc2)CSC[C@H](NC(=O)[C@H](CCCCN)NC(=O)[C@@H]2CCCN2C(=O)[C@H](C)N)C(=O)N[C@@H](C(C)C)C(=O)N[C@@H]([C@@H](C)CC)C(=O)N[C@@H](CC(C)C)C(=O)N[C@@H](CCCCN)C(=O)N[C@@H](CCCCN)C(=O)N[C@@H](C)C(=O)N1)C(=O)N[C@@H](CC(C)C)C(=O)N[C@@H](CO)C(=O)O` [IDP-P1708161] (H-APKCVILKKACAYILS-OH; linker 4-11 via Biphenyl(4,4'-CH2)2; N-terminus and C-terminus assumed), the half-maximal inhibitory concentration (IC50) in assay [1] worked out at 33 ± 15 µM; in assay [1] (24 h), 10 µM; in assay [1] (72 h) it was 15 µM; in assay [2], 42 ± 6 µM.

For orientation: IC50 means the concentration that inhibits the measured activity by half.

The values above are taken from patent publication US20200261534A1, “NEW TREATMENTS OF MULTIPLE MYELOMA” (priority 2017, published 2020).
